Measurements: the NIST ThermoML archive (doi:10.1016/j.jct.2004.01.003)

Experiment: mn = molality of the nth substance listed, in mol/kg
Settings: 350 kPa, Liquid

O=[N+]([O-])[O-].O=[N+]([O-])[O-].[Ba+2] [barium dinitrate] + O
apparent molar volume [m3/mol]
Settings	m1 = 0.02026	m1 = 0.0208	m1 = 0.03085	m1 = 0.0401	m1 = 0.05028	m1 = 0.07046	m1 = 0.1005	m1 = 0.1931
278.15 K	3.67e-05	3.55e-05	3.91e-05	3.99e-05	3.81e-05	4.19e-05	4.18e-05	4.43e-05
283.15 K	3.99e-05	3.77e-05	4.13e-05	4.27e-05	4.16e-05	4.41e-05	4.44e-05	4.63e-05
288.15 K	4.18e-05	4.07e-05	4.28e-05	4.4e-05	4.39e-05	4.53e-05	4.59e-05	4.77e-05
298.15 K	4.32e-05	4.44e-05	4.64e-05	4.8e-05	4.82e-05	4.84e-05	4.9e-05	5.08e-05
308.15 K	4.53e-05	4.61e-05	4.89e-05	5.05e-05	5.07e-05	5.07e-05	5.12e-05	5.3e-05
318.15 K	4.89e-05	4.77e-05	4.97e-05	5.24e-05	5.25e-05	5.26e-05	5.27e-05	5.48e-05
328.15 K	5.14e-05	5.01e-05	5.17e-05	5.39e-05	5.38e-05	5.39e-05	5.38e-05	5.57e-05
338.15 K	5.31e-05	5.15e-05	5.29e-05	5.46e-05	5.43e-05	5.46e-05	5.47e-05	5.66e-05
348.15 K	5.4e-05	5.21e-05	5.35e-05	5.52e-05	5.49e-05	5.51e-05	5.52e-05	5.71e-05
358.15 K	5.5e-05	5.21e-05	5.38e-05	5.49e-05	5.53e-05	5.51e-05	5.54e-05	5.73e-05
368.15 K	4.76e-05	5.17e-05	5.39e-05	5.44e-05	5.5e-05	5.46e-05	5.5e-05	5.71e-05
